Reference: ChEMBL document CHEMBL4828757, “Further hit optimization of 6-(trifluoromethyl)pyrimidin-2-amine based TLR8 modulators: Synthesis, biological evaluation and structure-activity relationships” (Eur J Med Chem, 2021)
The source made the active and inactive calls. No cut-off for these calls is given here.

What was measured:
Type in all cases: cell-based
Toll-like receptor 8 = target: T1, Toll-like receptor 8 (Homo sapiens, UniProt Q9NR97); test: (§1) Negative modulator activity at human TLR8 expressed in HEK-Blue hTLR8 cells assessed as inhibition of TL8-506 stimulated NF-kappaB activation preincubated with compound for 1 hr followed by TL8-506 stimulation for 24 hrs by SEAP-based colorimetric assay
T1 sequence (Q9NR97 whole entry): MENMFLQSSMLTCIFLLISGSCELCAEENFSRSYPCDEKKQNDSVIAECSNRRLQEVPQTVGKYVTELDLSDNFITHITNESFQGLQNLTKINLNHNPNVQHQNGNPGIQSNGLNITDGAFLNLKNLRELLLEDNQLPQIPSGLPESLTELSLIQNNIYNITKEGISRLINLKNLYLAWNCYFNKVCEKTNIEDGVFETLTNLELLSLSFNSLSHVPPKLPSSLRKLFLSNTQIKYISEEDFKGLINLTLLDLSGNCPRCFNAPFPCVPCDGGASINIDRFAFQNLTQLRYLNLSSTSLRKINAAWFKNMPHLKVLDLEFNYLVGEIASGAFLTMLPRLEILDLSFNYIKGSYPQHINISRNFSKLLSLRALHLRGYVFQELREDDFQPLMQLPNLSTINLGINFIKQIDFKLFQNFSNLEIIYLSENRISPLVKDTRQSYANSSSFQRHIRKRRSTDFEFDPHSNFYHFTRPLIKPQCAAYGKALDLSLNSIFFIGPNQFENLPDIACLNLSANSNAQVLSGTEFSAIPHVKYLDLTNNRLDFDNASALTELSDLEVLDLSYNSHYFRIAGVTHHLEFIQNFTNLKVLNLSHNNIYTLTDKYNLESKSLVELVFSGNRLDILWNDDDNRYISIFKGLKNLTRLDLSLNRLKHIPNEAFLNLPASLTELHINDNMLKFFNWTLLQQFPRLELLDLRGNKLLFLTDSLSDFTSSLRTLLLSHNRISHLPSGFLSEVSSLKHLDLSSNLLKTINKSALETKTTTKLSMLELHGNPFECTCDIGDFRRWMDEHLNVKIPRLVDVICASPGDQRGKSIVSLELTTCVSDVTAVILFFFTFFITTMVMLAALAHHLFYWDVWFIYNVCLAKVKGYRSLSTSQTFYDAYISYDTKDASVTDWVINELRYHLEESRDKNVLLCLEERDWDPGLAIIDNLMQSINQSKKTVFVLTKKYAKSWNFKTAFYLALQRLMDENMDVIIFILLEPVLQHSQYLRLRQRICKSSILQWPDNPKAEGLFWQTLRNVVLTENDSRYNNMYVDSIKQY

[1] = Cytotoxicity against human HEK-Blue hTLR8 cells assessed as reduction in cell viability at 50 uM by MTT assay; conditions: for Activity: hek-blue htlr8, 50 µM
[2] = target: T2, Toll-like receptor 8 (Homo sapiens) (UniProt Q9NR97); test: Negative modulator activity at human TLR8 expressed in HEK-Blue hTLR8 cells assessed as inhibition of TL8-506 stimulated NF-kappaB activation at 25 uM preincubated with compound for 1 hr followed by TL8-506 stimulation for 24 hrs by SEAP-based colorimetric assay; conditions: filed as modulator, time 25.0 hrs
T2 sequence (whole entry): T1 sequence (Q9NR97 whole entry)

[3] = target: T2, Toll-like receptor 8 (Homo sapiens); test: as §1; conditions: time 25.0 hrs
[4] = Cytotoxicity against human PBMC cells assessed as reduction in cell viability at 10 uM incubated for 48 hrs by MTS assay
[5] = Cytotoxicity against human PBMC cells assessed as reduction in cell viability up to 50 uM incubated for 48 hrs by MTS assay
[6] = target: T2, Toll-like receptor 8 (Homo sapiens); test: Negative modulator activity at human TLR8 expressed in HEK-Blue hTLR8 cells assessed as inhibition of TL8-506 stimulated NF-kappaB activation at 10 uM preincubated with compound for 1 hr followed by TL8-506 stimulation for 24 hrs by SEAP-based colorimetric assay; conditions: filed as modulator, time 25.0 hrs

Compound `Oc1cccc(CNc2nc(C3CCCCC3)cc(C(F)(F)F)n2)c1` has an IC50 (Toll-like receptor 8; read-out: IC50) of 22 µM.
With `NCc1cccc(CNc2nc(-c3ccco3)cc(C(F)(F)F)n2)c1` the Activity [1] was “Toxic” and the inhibition [2] was 50%.
For `CCNc1nc(-c2ccco2)cc(C(F)(F)F)n1`, the inhibition [3] was “inactive”.
In the case of `COc1ccc(-c2cc(C(F)(F)F)nc(NCc3cccs3)n2)cc1`, the inhibition ([3]; filed as modulator) is reported as “Active”.
For `FC(F)(F)c1cc(-c2ccco2)nc(NC2CCC2)n1`, the inhibition [3] was “inactive”.
With `NCc1ccc(CNc2nc(-c3ccco3)cc(C(F)(F)F)n2)cc1` the Activity [1] was “Toxic” and the inhibition [2] was 75%.
`FC(F)(F)c1cc(-c2ccco2)nc(NCCc2ccccc2)n1` gave an IC50 (Toll-like receptor 8; read-out: IC50) greater than 100 µM.
For `FC(F)(F)c1cc(-c2ccco2)nc(NCC2CC2)n1`, the inhibition [3] was “inactive”.
In the case of `CC(C)Nc1nc(-c2ccco2)cc(C(F)(F)F)n1`, the inhibition [3] is reported as “inactive”.
For `Oc1ccc(CNc2nc(-c3ccco3)cc(C(F)(F)F)n2)cc1`, the IC50 (Toll-like receptor 8; read-out: IC50) was 11 µM.
Work on `Oc1cccc(CNc2nc(-c3ccco3)cc(C(F)(F)F)n2)c1` yielded an IC50 (Toll-like receptor 8; read-out: IC50) of 23 µM.
In the case of `CS(=O)(=O)c1nc(-c2ccco2)cc(C(F)(F)F)n1`, the Activity [4] is reported as “Toxic”.
With `c1coc(-c2ccnc(NCc3cccs3)n2)c1` the inhibition [3] was “inactive”.
In the case of `FC(F)(F)c1cc(-c2ccco2)nc(NC2CC2)n1`, the inhibition [3] is reported as “inactive”.
For `CCCCCCNc1nc(-c2ccco2)cc(C(F)(F)F)n1`, the inhibition [3] was “inactive”.
With `COc1ccc(CNc2nc(-c3ccco3)cc(C(F)(F)F)n2)cc1` the IC50 (Toll-like receptor 8; hek-blue htlr8) was “Not Active”.
In the case of `FC(F)(F)c1cc(-c2ccco2)nc(NCCN2CCOCC2)n1`, the inhibition [3] is reported as “inactive”.
For `OCCNc1nc(-c2ccco2)cc(C(F)(F)F)n1`, the inhibition [3] was “inactive”.
For `C=CCNc1nc(-c2ccco2)cc(C(F)(F)F)n1`, the inhibition [3] was “inactive”.
With `FC(F)(F)c1cc(C2CCCCC2)nc(NCc2cccs2)n1` the inhibition [3] was “inactive”.
With `OCc1cccc(CNc2nc(-c3ccco3)cc(C(F)(F)F)n2)c1` the IC50 (Toll-like receptor 8; hek-blue htlr8) was “Not Active”.
With `CS(=O)(=O)c1nc(-c2ccccc2)cc(C(F)(F)F)n1` the IC50 (Toll-like receptor 8; hek-blue htlr8) was “Not Active”.
In the case of `OCc1ccc(CNc2nc(-c3ccco3)cc(C(F)(F)F)n2)cc1`, the Activity [5] is reported as “Non-Toxic”.
In the case of `Cc1cc(C(F)(F)F)nc(NCc2cccs2)n1`, the inhibition [3] is reported as “inactive”.
With `FC(F)(F)c1cc(-c2ccco2)ncn1` the inhibition [3] was “inactive”.
For `FC(F)(F)c1ccnc(NCc2cccs2)n1`, the inhibition [3] was “inactive”.
In the case of `COc1cccc(CNc2nc(-c3ccco3)cc(C(F)(F)F)n2)c1`, the IC50 (Toll-like receptor 8; hek-blue htlr8) is reported as “Not Active”.
In the case of `Oc1cccc(CNc2nc(-c3ccccc3)cc(C(F)(F)F)n2)c1`, the IC50 (Toll-like receptor 8; hek-blue htlr8) is reported as “Not Active”.
With `FC(F)(F)c1cc(-c2ccco2)nc(Nc2ccccc2)n1` the IC50 (Toll-like receptor 8; read-out: IC50) was 77 µM.
With `Cc1ccc(-c2cc(C(F)(F)F)nc(NCc3cccs3)n2)cc1` the inhibition ([3]; filed as modulator) was “Active”.
With `FC(F)(F)c1cc(-c2ccco2)nc(NC2CCCC2)n1` the inhibition [3] was “inactive”.
In the case of `FC(F)(F)c1cc(-c2ccco2)nc(NC2CCCCC2)n1`, the inhibition [3] is reported as “inactive”.
`FC(F)(F)c1cc(-c2ccccc2)nc(NCc2cccs2)n1` gave a cytotoxicity at 50 µM ([1]; HEK-Blue hTLR8 cells, read-out: INH) of 40%, an inhibition [2] of 60% and an inhibition [6] of 50%.
With `O=C(O)c1ccc(CNc2nc(-c3ccco3)cc(C(F)(F)F)n2)cc1` the IC50 (Toll-like receptor 8; hek-blue htlr8) was “Not Active”.
In the case of `CCCNc1nc(-c2ccco2)cc(C(F)(F)F)n1`, the inhibition [3] is reported as “inactive”.
For `Cc1cc(-c2ccco2)nc(NCc2cccs2)n1`, the inhibition ([3]; filed as modulator) was “Active”.
`FC(F)(F)c1cc(-c2ccco2)nc(NCc2ccccc2)n1` gave an IC50 (Toll-like receptor 8; read-out: IC50) greater than 100 µM.
In the case of `CCCCNc1nc(-c2ccco2)cc(C(F)(F)F)n1`, the inhibition [3] is reported as “inactive”.
In the case of `CC(C)CNc1nc(-c2ccco2)cc(C(F)(F)F)n1`, the inhibition [3] is reported as “inactive”.
In the case of `OCCOCCNc1nc(-c2ccco2)cc(C(F)(F)F)n1`, the inhibition [3] is reported as “inactive”.
